Results published in the supplement of paper PMC13380429.

Experiments:
Conditions in all cases: 72 h
U2OS [1] = assay: cell viability relative to DMSO; higher = less toxic
Caco-2 [2] = assay: as above
HepG2 [3] = assay: as above
Calu-3 [4] = assay: as above
Vero E6 [5] = assay: as above
U2OS [6] = assay: drug sensitivity score (DSS) for viability; higher = more toxic; extreme values may be limits of the assay
Caco-2 [7] = assay: as above
HepG2 [8] = assay: as above
Calu-3 [9] = assay: as above
Vero E6 [10] = assay: as above
U2OS [11] = assay: relative viability EC50 (midpoint between 100% and the lowest measured viability); higher = less toxic
Caco-2 [12] = assay: as above
HepG2 [13] = assay: as above
Calu-3 [14] = assay: as above
Vero E6 [15] = assay: as above

| Compound | cell viability (U2OS [1]; 1 nM) [%] | cell viability (U2OS [1]; 10 nM) [%] | cell viability (U2OS [1]; 100 nM) [%] | cell viability (U2OS [1]; 1000 nM) [%] | cell viability (U2OS [1]; 10000 nM) [%] | cell viability (Caco-2 [2]; 1 nM) [%] | cell viability (Caco-2 [2]; 10 nM) [%] | cell viability (Caco-2 [2]; 100 nM) [%] | cell viability (Caco-2 [2]; 1000 nM) [%] | cell viability (Caco-2 [2]; 10000 nM) [%] | cell viability (HepG2 [3]; 1 nM) [%] | cell viability (HepG2 [3]; 10 nM) [%] | cell viability (HepG2 [3]; 100 nM) [%] | cell viability (HepG2 [3]; 1000 nM) [%] | cell viability (HepG2 [3]; 10000 nM) [%] | cell viability (Calu-3 [4]; 1 nM) [%] | cell viability (Calu-3 [4]; 10 nM) [%] | cell viability (Calu-3 [4]; 100 nM) [%] | cell viability (Calu-3 [4]; 1000 nM) [%] | cell viability (Calu-3 [4]; 10000 nM) [%] | cell viability (Vero E6 [5]; 1 nM) [%] | cell viability (Vero E6 [5]; 10 nM) [%] | cell viability (Vero E6 [5]; 100 nM) [%] | cell viability (Vero E6 [5]; 1000 nM) [%] | cell viability (Vero E6 [5]; 10000 nM) [%] | drug sensitivity score (U2OS [6]) | drug sensitivity score (Caco-2 [7]) | drug sensitivity score (HepG2 [8]) | drug sensitivity score (Calu-3 [9]) | drug sensitivity score (Vero E6 [10]) | relative viability EC50 (U2OS [11]) [µM] | relative viability EC50 (Caco-2 [12]) [µM] | relative viability EC50 (HepG2 [13]) [µM] | relative viability EC50 (Calu-3 [14]) [µM] | relative viability EC50 (Vero E6 [15]) [µM] |
| --- | --- | --- | --- | --- | --- | --- | --- | --- | --- | --- | --- | --- | --- | --- | --- | --- | --- | --- | --- | --- | --- | --- | --- | --- | --- | --- | --- | --- | --- | --- | --- | --- | --- | --- | --- |
| N[C@@H](Cc1ccc(O)cc1)C(=O)NCC(=O)NCC(=O)O [IMREG-1] | 104 | 95 | 97.6 | 93.5 | 102 | 98.2 | 91.6 | 103 | 91.3 | 97.1 | 101 | 102 | 92 | 103 | 86.8 | 102 | 99.5 | 101 | 98.5 | 108 | 90.7 | 96.8 | 92.6 | 97.9 | 89.8 | 0 | 0 | 0.1 | 0 | 0 | > 10 | > 10 | > 10 | > 10 | > 10 |
| Nc1nc2ccc(Cl)cc2c2nc(-c3ccco3)nn12 | 102 | 100 | 103 | 97.7 | 98.3 | 100 | 91.6 | 104 | 88.1 | 76.7 | 91.5 | 104 | 87.7 | 33.5 | 23.2 | 109 | 92.8 | 96.9 | 98.5 | 84.9 | 96.1 | 97.6 | 94.2 | 100 | 85.9 | 0 | 2.2 | 13.8 | 0.4 | 0.2 | > 10 | > 10 | 0.297 | > 10 | > 10 |
| CNC(=O)c1ccc2c(c1)S(=O)(=O)c1ccccc1C2=O [BW-616U] | 99.1 | 95 | 100 | 99.4 | 98.9 | 96.6 | 108 | 111 | 92.4 | 99.4 | 109 | 106 | 92.7 | 110 | 104 | 115 | 104 | 102 | 100 | 96.7 | 95.2 | 95.9 | 98.1 | 109 | 106 | 0 | 0 | 0 | 0 | 0 | > 10 | > 10 | > 10 | > 10 | > 10 |
